Measurements reported in ChEMBL document CHEMBL1156111, “Identification of the amino acid-AZT-phosphoramidase by affinity T7 phage display selection” (Bioorg Med Chem Lett, 2009).

Target: Adenosine 5'-monophosphoramidase HINT1 (Homo sapiens) (UniProt P49773)
Assay: Ratio of kcat to km for human HINT1

Chain of Adenosine 5'-monophosphoramidase HINT1 (Homo sapiens) (P49773 whole entry): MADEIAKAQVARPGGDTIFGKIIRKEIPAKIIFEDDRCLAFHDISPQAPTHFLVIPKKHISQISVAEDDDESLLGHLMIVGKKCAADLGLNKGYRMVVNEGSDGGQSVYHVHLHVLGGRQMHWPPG

Ratio: 25
SMILES: Cc1cn([C@H]2C[C@H](N=[N+]=[N-])[C@@H](COP(=O)(O)NCc3c[nH]c4ccccc34)O2)c(=O)[nH]c1=O
